# Results reported in US20040019060A1, “Sigma receptor ligands and their medical uses” (priority 2000, published 2004).
# Where a name gives a salt, the structure may show the parent alone.
# Experiments:
# sponge angiogenesis = assay: Rat sponge angiogenesis model (125I albumin vascular volume); type: in vivo, CBH/cbi rats
# Method: In order to study neoangiogenesis in the absence of tumours, sterile polyether sponges were implanted into animals. This technique, developed in Cambridge, has been widely used to study angiogenesis. We have employed a triple radiotracer technique to study different aspects of the angiogenic process.
# CBH/cbi rats were implanted s.c. with sterile 13 mm diameter sponges as above. They were treated i.p. with Rimcazole (30 mg/kg/day) for 14 days from day 0. Five minutes before termination, they were injected with ^125I labelled rat albumin (a macromolecule which, in the short term remains intravascular). The amount of radioiodine in the sponges is an index of vascular volume.
# [1] = test system: human vascular endothelial cells (HUVEC); assay: Proliferation assay in HUVEC (phosphatase activity); type: cell-based; conditions: 168 h, read-out: IC50 (dose required to inhibit proliferation to 50% of control), FIG. 2b, assay on day 7
# Method: HUVECS (human umbilical vein endothelial cells) obtained from TCS Biologicals were grown in TCS Biologicals Large Vessel Endothelial Cell Basal Medium (ZHM-2951) with supplement (ZHS-8945). This contains heparin, hydrocortisone, human EGF, human bFGF (concentrations not disclosed by the Company) with added 2% FCS, pH 7.4.
# (§1) The cells were seeded at 2×10^4 ml in 96 well microtitre plates on day 0, and sigma ligands were added in fresh medium on day 1. […] PCS at the concentrations indicated was present throughout the assay. Each concentration of drug was assayed in triplicate, and the vehicle concentration was kept constant.
# (§2) Viable cells present at the end of the assay were estimated by determining phosphatase activity as follows: 100Xl of paranitrophenylphosphate (Sigma) at 3 mg/ml in phosphate buffer pH 5.5 containing 0.1% Triton X100 was added to wells and incubated for 2hr at 37° C. The reaction was stopped with 1N NaOH. Released paranitrophenol, indicative of attached cell number, was measured by reading the absorbance at 405 nm in a Titertek multiscan. “Background” counts (which were very low) were subtracted, and the survival in drug treated wells compared with that of control wells. The 100% value is the mean absorbance of control wells treated with vehicle alone; the 0% value is that of wells containing medium only.
# [2] = test system: Human mammary carcinoma (MDA MB 468) cells; assay: MTS cell viability/proliferation assay, mammary carcinoma cells; type: cell-based
# Method: Human mammary carcinoma (MDA MB 468) cells were obtained from TCC, Manassas, Va., USA; catalogue number HTB-132; cells were grown in accordance with the manufacturer's instructions.
# (§3) Cell density was checked microscopically at time zero.
# [3] = test system: Human mammary epithelial cells; assay: MTS cell viability/proliferation assay, mammary epithelial cells; type: cell-based; conditions: 10 micromolar, up to 48 hours, FIG. 9
# Text: (§4) (Tissue in all cases was from healthy donors). […] Primary cell types included:
# Human mammary epithelial cells (catalogue number CC-2551; stain positive for cytokeratins 14, 18 and 19).
# as §3
# [4] = test system: Human endothelial cells co-cultured with human "feeder" fibroblasts; assay: In vitro angiogenesis assay (pseudocapillary formation, anti-CD31 staining); type: cell-based
# Method: Human endothelial cells co-cultured with human “feeder” fibroblasts on a fibrin matrix in 24 well plates were incubated with ligands at different concentrations. The ligands were added on days 0, 4, 7 and 9 and the experiment terminated on day 11. On each plate, 2 wells served as untreated controls, and 2 received suramin at […] as a standard angiogenesis inhibitor. Each concentration of ligand was assayed in triplicate. On day 11, the wells were washed, and the endothelial cells fixed and stained with anti-CD31 (PECAM-1) antibody and visualised with alkaline phosphatase conjugated second antibody. The cultures were scanned for image analysis and quantitation using a DataCell image analysis system and ImagePro software. Angiogenesis was expressed as the area and/or perimeter of “pseudocapillaries” formed in the gel by the endothelial cells.
# [5] = Pharmacokinetics in mice (LCMS of plasma, liver, spleen); type: in vivo, Balb/C mice
# Method: Prior to undertaking any in vivo experiments with Rimcazole to study effects on tumour growth and angiogenesis, it was necessary to determine its pharmacokinetics in order that doses in the active range could be administered. Rimcazole (dissolved in water) was administered at 40 mg/kg i.p to Balb/C mice. Heparinised blood samples were taken at 5, 15 and 30 minutes, 1,2,4,6, and 24 hours and plasma separated. Tissue samples were also taken at some time points for analysis. Rimcazole samples were initially analysed by LCMS.
# Column: Supelco 50×4.6 mm ABZ+ with 5 μ packing.
# Mobile phase: A=HPLC grade methanol, B=0.1% formic acid in water.
# Full scan mode: mass range analysed 50 to 850 amu.
# MSMS mode: filtered ions were 322 (Rimcazole), 338 (Rimcazole+oxygen), and 514 (glucuronide of 338 metabolite).
# [6] = test system: human adult dermal fibroblasts; assay: MTS cell viability/proliferation assay, dermal fibroblasts; type: cell-based
# Text: as §4, §3
# [7] = test system: human microvascular endothelial cells (HMEC-1); assay: Proliferation assay in HMEC-1 (phosphatase activity); type: cell-based; conditions: 168 h, read-out: IC50 (dose required to inhibit proliferation to 50% of control), HMEC-1, FIG. 2a, assay on day 7
# Method: HMEC-1 (immortalised human microvascular endothelial cells) obtained from Dr Colin Porter, Chester Beatty Laboratories were grown in TCS Biologicals Microvascular Endothelial Cell Basal Medium (ZHM-2946) with supplement (ZHS-8947). This contains heparin, hydrocortisone, human EGF, human bFGF, dibutyryl cyclic AMP (concentrations not disclosed by the Company) with added 5% FCS, pH 7.4.
# as §1, §2
# sigma-1 sites = sigma-1 sites (Homo sapiens, UniProt Q99720); conditions: Abou-Gharbia et al 1993; cited from earlier work
# Chain of sigma-1 sites (Q99720 whole entry): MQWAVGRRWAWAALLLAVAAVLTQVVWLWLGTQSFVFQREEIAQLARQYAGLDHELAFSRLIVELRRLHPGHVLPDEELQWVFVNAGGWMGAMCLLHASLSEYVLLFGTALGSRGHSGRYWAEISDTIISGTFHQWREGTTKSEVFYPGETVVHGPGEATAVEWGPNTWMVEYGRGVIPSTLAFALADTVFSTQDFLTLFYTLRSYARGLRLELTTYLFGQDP
compound,measurement,setting,value
"C[C@@H]1CN(CCCn2c3ccccc3c3ccccc32)C[C@H](C)N1 [Rimcazole, cis-9-[3,5-dimethyl-1-piperazinyl) propyl]carbazole dihydrochloride]",Vascular volume of normal organs (liver and kidney),sponge angiogenesis; 30 mg/kg/day for 14 days,unaffected
same,"Neoangiogenesis in sponges (vascular volume, radiolabelled albumin)","sponge angiogenesis; 30 mg/kg/day for 14 days after implantation, FIG. 7b",reduced
same,IC50,[1],< 5 µM
same,Effect of sublethal concentration (MTS),"[2]; 5 micromolar, FIG. 10 bottom panel",cytostasis
same,Cell killing (MTS viability),"[2]; 10 micromolar, low passage cells, FIG. 9",no surviving cells remained after 24 hours
same,Survival and proliferation (MTS),[3],continued to proliferate vigorously
same,Inhibition of in vitro angiogenesis,"[4]; 4 μM, FIG. 5c",complete inhibition of angiogenesis
same,Inhibition of pseudocapillary formation (in vitro angiogenesis),"[4]; FIG. 4, 5a, 5b angiogenesis area",very effective in inhibiting
same,Tissue levels relative to plasma,"[5]; Rimcazole 40 mg/kg i.p., mice, spleen and liver",higher in spleen and liver than in plasma
same,Plasma levels relative to IC50,[5]; once daily dosing at 40 mg/kg,plasma levels above the IC50 for a significant period
same,Survival and proliferation (MTS),"[6]; 10 micromolar, up to 48 hours, FIG. 9",continued to proliferate vigorously
same,Tolerance of fibroblasts over a range of concentrations (MTS),"[6]; 100 micromolar to 1 nanomolar, FIG. 10",remarkably resistant
same,IC50,[7],< 5 µM
same,selectivity for sigma-1 compared to sigma-2 sites,sigma-1 sites,approximately 5 fold
